From US7700634B2, “(Indol-3-yl) heterocycle derivatives as agonists of the cannabinoid CB1 receptor” (N.V. Organon, priority 2004, dated 2010)
Counter-ions that a name gives are not always drawn.

Columns and labels:
[1] = test system: Mice; assay: Tail flick latency in mice; format: in vivo; conditions: Mus musculus, iv, administered intravenously, ED50 calculated at Tmax, significantly increased the tail flick latency, read-out: ED50 (increase of tail flick latency)
Description: Tail Flick Latency in Mice
Mice were trained to sit still in a tail flick apparatus (Ugo Basile, Italy) whilst tail flick latency was measured. The tail was exposed to a focused beam of radiant heat at a point approximately 2.5 cm from the tip. Tail flick latency was defined as the interval between the appliance of the thermal stimulus and withdrawal of the tail. A 12 second cut-off was employed to prevent tissue damage. Four groups of eight mice were treated with vehicle or one of three doses of the test compound, administered intravenously (vehicle: 10% Tween-80 in saline; injection volume 10 ml/kg). Tail flick latency was measured before administration of the test compound and at regular intervals (typically 20, 40 and 60 minutes) after compound administration. The ED50 was calculated at Tmax.

[2] = target: T1, human CB1 receptor (Homo sapiens, UniProt P21554); assay: In-vitro efficacy and potency at the human CB1 receptor expressed in CHO cells (luciferase reporter gene assay); format: cell-based; conditions: CHO cells expressing human CB1 receptor and luciferase reporter gene; 5 h incubation at 37° C.
T1 construct: expressed in transfected cells; host or cells: Chinese Hamster Ovary (CHO) cells
T1 sequence (P21554 whole entry): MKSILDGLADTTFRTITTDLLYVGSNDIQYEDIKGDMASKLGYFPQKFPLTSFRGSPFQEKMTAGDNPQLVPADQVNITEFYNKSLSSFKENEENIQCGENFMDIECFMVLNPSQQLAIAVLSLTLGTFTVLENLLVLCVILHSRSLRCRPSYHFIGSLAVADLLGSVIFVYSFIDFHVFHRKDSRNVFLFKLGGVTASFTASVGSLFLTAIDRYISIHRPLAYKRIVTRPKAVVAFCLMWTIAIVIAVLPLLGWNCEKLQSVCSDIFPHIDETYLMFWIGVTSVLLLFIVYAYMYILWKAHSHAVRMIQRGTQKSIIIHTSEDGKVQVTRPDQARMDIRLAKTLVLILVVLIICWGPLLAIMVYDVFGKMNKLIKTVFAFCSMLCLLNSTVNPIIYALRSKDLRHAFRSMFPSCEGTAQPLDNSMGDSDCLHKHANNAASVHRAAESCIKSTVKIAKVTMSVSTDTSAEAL
Description: In-vitro Determination of Efficacy and Potency at the Human CB1 Receptor Expressed in CHO Cells
Chinese Hamster Ovary (CHO) cells expressing the human CB1 receptor and a luciferase reporter gene were suspended in phenol red/serum free DMEM/F-12 nut mix containing penicillin/streptomycin (50 U/50 μg/ml) and fungizone (1 μg/ml) and seeded into 96 well plates at a density of 3×10^4 cells per well (100 μl final volume). Cells were incubated overnight (approx. 18 h at 37° C., 5% CO2/95% air) prior to assay. […] The stock solutions (10 μl) were added directly to the relevant wells. The plates were incubated at 37° C. for 5 h to allow agonist-induced expression of the luciferase enzyme. Under subdued light, LucLite substrate (Packard; reconstituted as per manufacturer's instructions; 100 μl) was added to each well. Plates were covered with Top Seal and then incubated at room temperature for 5 minutes before counting on the Packard TopCount (single photon counting, 0.01 minute count time, 5 minute count delay).

## CCN(CCO)Cc1nc(-c2cn(CC3CCOCC3)c3c(Cl)cccc23)ns1 [Example 15C, 7-chloro-3-(5-{[N-ethyl-N-(2-hydroxyethyl)amino]methyl}-[1,2,4]-thiadiazol-3-yl)-1-(tetrahydropyran-4-yl)methyl-1H-indole]
[1]
  ED50: < 5 µmol/kg
[2]
  EC50: 10 nM

## COc1cccc2c(-c3nnc(CN4CCCC4)s3)cn(CC3CCCCC3)c12 [Example 38, 1-(Cyclohexyl)methyl-7-methoxy-3-{5-[(pyrrolidin-1-yl)methyl]-[1,3,4]-thiadiazol-2-yl}-1H-indole, hydrochloride salt]
[2]
  EC50: 79.4 nM

## CCN1Cc2snc(-c3cn(CC4CCCCC4)c4c(OC)cccc34)c2C1 [Example 33, 1-(Cyclohexyl)methyl-3-(5-ethyl-5,6-dihydro-4H-pyrrolo[3,4-d]isothiazol-3-yl)-7-methoxy-1H-indole, hydrochloride salt]
[2]
  EC50: 79.4 nM

## COc1cccc2c(-c3noc([C@H]4CCCN4C)n3)cn(CC3CCCCC3)c12 [Example 2G, (R)-1-(Cyclohexyl)methyl-7-methoxy-3-[5-(1-methylpyrrolidin-2-yl)-[1,2,4]oxadiazol-3-yl]-1H-indole, hydrochloride salt]
[1]
  ED50: < 5 µmol/kg
[2]
  EC50: 31.6 nM

## Fc1cccc2c(-c3nsc(CN4CCCC4)n3)cn(CC3CCOCC3)c12 [Example 14B, 7-fluoro-3-{5-[(pyrrolidin-1-yl)methyl]-[1,2,4]-thiadiazol-3-yl}1-(tetrahydropyran-4-yl)methyl-1H-indole, hydrochloride salt]
[1]
  ED50: < 5 µmol/kg
[2]
  EC50: 50.1 nM

## CC1(C)CCCN1Cc1nc(-c2cn(CC3CCOCC3)c3c(Cl)cccc23)no1 [Example 39, 7-Chloro-3-{5-[(2,2-dimethyl-pyrolidin-1-yl)methyl]-[1,2,4]oxadiazol-3-yl}-1-(tetrahydropyran-4-yl)methyl-1H-indole, hydrochloride salt]
[1]
  ED50: < 5 µmol/kg
[2]
  EC50: 31.6 nM

## CCN(CC)Cc1ncc(-c2cn(CC3CCCCC3)c3c(OC)cccc23)o1 [Example 32, 1-(Cyclohexyl)methyl-3-{2-[(diethylamino)methyl]-[1,3]-oxazol-5-yl}-7-methoxy-1H-indole, hydrochloride salt]
[2]
  EC50: 50.1 nM

## CCN(CCO)Cc1csc(-c2cn(CC3CCOCC3)c3c(Cl)cccc23)n1 [Example 23C, 7-Chloro-3-(4-{[N-ethyl-N-(2-hydroxyethyl)amino]methyl}-[1,3]-thiazol-2-yl)-1-(tetrahydropyran-4-yl)methyl-1H-indole]
[1]
  ED50: < 5 µmol/kg

## CCN(CCOC)Cc1nc(-c2cn(CC3CCOCC3)c3c(Cl)cccc23)ns1 [Example 15A, 7-chloro-3-(5-{[N-ethyl-N-(2-methoxyethyl)amino]methyl}-[1,2,4]-thiadiazol-3-yl)-1-(tetrahydropyran-4-yl)methyl-1H-indole, hydrochloride salt]
[1]
  ED50: < 5 µmol/kg
[2]
  EC50: 10 nM

## Clc1cccc2c(-c3nsc(CN4CCCC4)n3)cn(CC3CCOCC3)c12 [Example 15B, 7-chloro-3-{5-[(Pyrrolidin-1-yl)methyl]-[1,2,4]-thiadiazol-3-yl}1-(tetrahydropyran-4-yl)methyl-1H-indole, hydrochloride salt]
[1]
  ED50: < 5 µmol/kg
[2]
  EC50: 20 nM

## CCN(CC)Cc1nc(-c2cn3c4c(cccc24)OC[C@H]3C2CCCCC2)ns1 [Example 13, (R)-3-Cyclohexyl-6-{5-[(diethylamino)methyl]-[1,2,4]-thiadiazol-3-yl}-2,3-dihydropyrrolo[1,2,3-de]-1,4-benzoxazine, hydrochloride salt]
[1]
  ED50: < 5 µmol/kg
[2]
  EC50: 7.94 nM

## COCCN(Cc1csc(-c2cn(CC3CCCCC3)c3c(Cl)cccc23)n1)C(C)C [Example 20, 7-Chloro-1-(cyclohexyl)methyl-3-(4-{[N-isopropyl-N-(2-methoxyethyl)amino]methyl}-[1,3]-thiazol-2-yl)-1H-indole, hydrochloride salt]
[1]
  ED50: < 5 µmol/kg
[2]
  EC50: 5.01 nM

## CC(C)N(CCO)Cc1csc(-c2cn(CC3CCOCC3)c3c(Cl)cccc23)n1 [Example 23B, 7-Chloro-3-(4-{[N-(2-hydroxyethyl)-N-isopropylamino]methyl}-1,3-thiazol-2-yl)-1-(tetrahydropyran-4-yl)methyl-1H-indole]
[1]
  ED50: < 5 µmol/kg
